Assay results: patent publication US20260263506A1, “CORNEAL DISORDER TREATMENT AGENT” (M'S SCIENCE CORPORATION, priority 2022, published 2026)
Marks after values point to notes of the source that are not given here.

Legend:
[1] = test system: HCE-T (immortalized human corneal epithelial) cells; experiment: HCE-T cell migration assay, cell migration area from fluorescence microscopic images (BZ-X analyzer); type: cell-based; conditions: for Relative cell migration area (%): no-addition control = 100%
Description: (§1) HCE-T (immortalized human corneal epithelial) cells [isolated and established from human corneal epithelia; obtained from RIKEN Cell Bank] were cultured in DMEM/F12 medium supplemented with 5% fetal bovine serum in a CO2 incubator at 37° C.
(§2) HCE-T cells grown to 60%-80% confluency in a T75 flask were detached with trypsin-EDTA and collected. The collected cells were suspended in fresh DMEM/F12 medium supplemented with fetal bovine serum.
(§3) From this cell suspension, 60,000 cells per well were seeded in a 96-well multiwell-plate, in which each well was fitted with a cell seeding stopper.
(§4) After the plate was incubated overnight at 37° C. in a CO 2 incubator, the cell stoppers were removed, and the cells were washed twice with a serum-free medium. Then, the medium was replaced by a serum-free medium supplemented with the test substance or a control serum-free medium devoid of the test substance, and the cells were cultured for 28 hours.
(§5) The serum-free medium with the test substance used was a medium containing fondaparinux sodium [obtained from Selleck] at a concentration of 0.1% (w/v) or 0.3% (w/v) or a medium containing 0.5% (w/v) sodium chondroitin sulfate (obtained from Tokyo Chemical Industry; average molecular weight, ~30,000).
(§6) The cultured cells were stained with Calcein-AM (obtained from nacalai tesque), and the fluorescence emitted from HCE-T cells that migrated to the zone where the stopper was placed was measured. After the fluorescence intensity was measured, fluorescence microscopic images were acquired and analyzed using a BZ-X analyzer to measure cell migration areas.
The cell migration areas were calculated (measured) through analysis of images acquired with a fluorescence microscope and were used to calculate areas relative to the no-addition control group (relative migration areas).
A relative migration area value is a relative cell migration area for each test substance group expressed in percentage in reference to the cell migration area of the no-addition control group as 100%.
(§7) As in Experiment 1, HCE-T (immortalized human corneal epithelial) cells were used to investigate the effects of test substances on the migration of HCE-T cells. The test substances used were fondaparinux sodium, high-molecular-weight sodium hyaluronate (average molecular weight 887,000), sodium heparan sulfate (average molecular weight 23,000), and low molecular weight heparin (average molecular weight 5,400). Among these test substances, fondaparinux sodium was obtained from Selleck as described above, and all other glycosaminoglycans were obtained from Iwai Chemicals Company. The concentration of each test substance was 0.3% (w/v).

[2] = test system: HCE-T (immortalized human corneal epithelial) cells; experiment: HCE-T cell migration assay, Calcein-AM fluorescence of cells migrated into the stopper zone; type: cell-based; conditions: for Relative fluorescence intensity (%): no-addition control = 100%; for Effect on migration of human corneal epithelial cells (in words): summary statement from both analysis methods
Description: as §1, §2, §3, §4, §5, §6
A relative fluorescence intensity value is a fluorescence intensity measurement for each test substance group expressed in percentage in reference to the fluorescence intensity of the no-addition group (control) as 100%, indicating the relative level of cell migration compared to the control.
as §7

[3] = Experiment 1, 0.1% (w/v), serum-free medium, 28 hours, mean and standard error of 3 measurements
[4] = Experiment 1, 0.3% (w/v), serum-free medium, 28 hours, mean and standard error of 3 measurements
[5] = Experiment 2, 0.3% (w/v), mean and standard error of 4 measurements
[6] = Experiment 2, 0.3% (w/v), as in Experiment 1
[7] = Experiment 1, 0.5% (w/v), serum-free medium, 28 hours, mean and standard error of 3 measurements

| Molecule | Relative cell migration area (%) ([1]; Experiment 1, 0.1% (w/v), n=3) | Cell migration area (10^4 μm^2) [1, 3] | Relative cell migration area (%) ([1]; Experiment 1, 0.3% (w/v), n=3) | Cell migration area (10^4 μm^2) [1, 4] | Cell migration area (10^4 μm^2) [1, 5] | Relative cell migration area (%) ([1]; Experiment 2, 0.3% (w/v), n=4) | Relative fluorescence intensity (%) ([2]; Experiment 1, 0.1% (w/v), 28 hours, n=3) | Fluorescence intensity [2, 3] | Relative fluorescence intensity (%) ([2]; Experiment 1, 0.3% (w/v), 28 hours, n=3) | Fluorescence intensity [2, 4] | Fluorescence intensity [2, 6] | Relative fluorescence intensity (%) ([2]; Experiment 2, 0.3% (w/v)) | Effect on migration of human corneal epithelial cells (in words) ([2]; listed as fondaparinux sodium, sodium salt) | Effect on migration of human corneal epithelial cells (in words) ([2]; listed as fondaparinux, sodium salt) | Effect on migration of human corneal epithelial cells (in words) [2] | Relative cell migration area (%) ([1]; Experiment 1, 0.5% (w/v), n=3) | Cell migration area (10^4 μm^2) [1, 7] | Relative fluorescence intensity (%) ([2]; Experiment 1, 0.5% (w/v), 28 hours, n=3) | Fluorescence intensity [2, 7] |
| --- | --- | --- | --- | --- | --- | --- | --- | --- | --- | --- | --- | --- | --- | --- | --- | --- | --- | --- | --- |
| CO[C@H]1OC(COS(=O)(=O)[O-])[C@@H](O[C@@H]2OC(C(=O)[O-])[C@@H](O[C@H]3OC(COS(=O)(=O)[O-])[C@@H](O[C@@H]4OC(C(=O)[O-])[C@@H](O[C@H]5OC(COS(=O)(=O)[O-])[C@@H](O)C(O)C5NS(=O)(=O)[O-])C(O)C4O)C(OS(=O)(=O)[O-])C3NS(=O)(=O)[O-])C(O)C2OS(=O)(=O)[O-])C(O)C1NS(=O)(=O)[O-].[Na+].[Na+].[Na+].[Na+].[Na+].[Na+].[Na+].[Na+].[Na+].[Na+] (stereo partly drawn) [Fondaparinux sodium, methyl O-(2-deoxy-6-O-sulfo-2-sulfoamino-α-D-glucopyranosyl)-(1→4)-O-(β-D-glucopyranosyluronic acid)-(1→4)-O-(2-deoxy-3,6-di-O-sulfo-2-sulfoamino-α-D-glucopyranosyl)-(1→4)-O-(2-O-sulfo-α-L-idopyranosyluronic acid)-(1→4)-2-deoxy-6-O-sulfo-2-sulfoamino-α-D-glucopyranoside sodium salt] | 160.5 ± 6.6 | 102.1 ± 4.2 10^4 μm^2 | 168.4 ± 5.1 | 107.1 ± 3.2* 10^4 μm^2 | 65.9 ± 6.4 10^4 μm^2 | 169.4 ± 16.4 | 145.41 ± 10.19 | 0.183 ± 0.013 | 170.1 ± 2.84 | 0.215 ± 0.004 | 0.290 ± 0.028 | 237.36 ± 22.53 | promoted migration and stretching of human corneal epithelial cells | strong stimulatory effect |  |  |  |  |  |
| High-molecular-weight sodium hyaluronate |  |  |  |  | 50.9 ± 17.4 10^4 μm^2 | 130.9 ± 4.5 |  |  |  |  | 0.176 ± 0.028 | 143.67 ± 22.72 |  |  |  |  |  |  |  |
| Low molecular weight heparin |  |  |  |  | 78.4 ± 12.3* 10^4 μm^2 | 201.6 ± 31.6 |  |  |  |  | 0.359 ± 0.083 | 293.94 ± 68.25 |  |  | strong stimulatory effect |  |  |  |  |
| Sodium chondroitin sulfate |  |  |  |  |  |  |  |  |  |  |  |  |  |  |  | 103.9 ± 18.0 | 66.1 ± 1.1 10^4 μm^2 | 89.20 ± 23.97 | 0.112 ± 0.030 |
